These results are taken from patent US7323598B2, “Preparation of xylylenediamine (XDA)” (BASF Aktiengesellschaft, priority 2003, dated 2008).

Molecules are shown by their SMILES.

This series can be described thus: Investigations of solubility of IPN in different solvents. The series is classed as physicochemical. The settings on record: for solubility of IPN in NMP: solvent NMP; for solubility of IPN in mesitylene: solvent mesitylene; for solubility of IPN in pseudocumene: solvent pseudocumene. The procedure: Investigations of Solubility of IPN in Different Solvents
At 60° C., the solubility of IPN in mesitylene or pseudocumene is in each case below 10% by weight.

Regarding `N#Cc1cccc(C#N)c1` [IPN, 1,3-dicyanobenzene], for the setting “60° C.”, the “solubility of IPN in NMP” value is given as “approx. 26 % by weight”, the “solubility of IPN in mesitylene” value was “below 10 % by weight” and the “solubility of IPN in pseudocumene” value is given as “below 10 % by weight”. Also, for the setting “90° C.”, the “solubility of IPN in NMP” value is “approx. 41 % by weight”, the “solubility of IPN in mesitylene” value stood at 12 % by weight and the “solubility of IPN in pseudocumene” value is given as 20 % by weight.
